“And” between values parts separate entries of the source, which are not always exact repeats. Equal values may be shown once.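 Results reflect a 48-hour exposure of cells in 96-well plates to compound at five concentrations. GI50 marks 50% less growth. TGI: total growth inhibition.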
Experiments:
Test in all cases: NCI-60 cell line screen, 48 h
SN12C renal = system: SN12C renal
DU-145 prostate = system: DU-145 prostate
OVCAR-5 ovarian = system: OVCAR-5 ovarian
EKVX NSCLC = system: EKVX NSCLC
HOP-92 NSCLC = system: HOP-92 NSCLC
SF-268 CNS = system: SF-268 CNS
NCI-H460 lung = system: NCI-H460 lung
SNB-19 CNS = system: SNB-19 CNS
MCF7 breast = system: MCF7 breast
M14 melanoma = system: M14 melanoma
NCI-H226 lung = system: NCI-H226 lung
SK-MEL-2 melanoma = system: SK-MEL-2 melanoma
ACHN renal = system: ACHN renal
RXF 393 renal = system: RXF 393 renal
CCRF-CEM leukemia = system: CCRF-CEM leukemia

Structure (SMILES)	TGI (SN12C renal)	TGI (DU-145 prostate) [µM]	TGI (OVCAR-5 ovarian) [µM]	TGI (EKVX NSCLC) [µM]	TGI (HOP-92 NSCLC) [µM]	TGI (SF-268 CNS) [µM]	TGI (NCI-H460 lung) [µM]	TGI (SNB-19 CNS) [µM]	TGI (MCF7 breast) [µM]	TGI (M14 melanoma) [µM]	TGI (NCI-H226 lung)	TGI (SK-MEL-2 melanoma) [µM]	TGI (ACHN renal) [µM]	TGI (RXF 393 renal) [µM]	TGI (CCRF-CEM leukemia) [µM]	GI50 (OVCAR-5 ovarian) [µM]	GI50 (EKVX NSCLC) [µM]	GI50 (SK-MEL-2 melanoma) [µM]	GI50 (ACHN renal) [µM]	GI50 (CCRF-CEM leukemia) [µM]
COC(=O)C1CCC(=O)N1CN(C(C)=O)c1ccccc1Cl (stereo not given)	> 100 µM	> 100	> 100	> 100	> 100	> 100	> 100	> 100	> 100	> 100	> 100 µM	> 100	> 100	> 100	–	–	–	–	–	–
CC(=O)Nc1ccc(NCC(=O)Nn2cnc3ccc(S(=O)(=O)Nc4ccc(NC(C)=O)cc4)cc3c2=O)cc1	> 100 µM	> 100	> 100	> 100	> 100	> 100	> 100	> 100	> 100	> 100	> 100 µM	> 100	> 100	–	> 100	–	–	–	–	–
Nc1nc2c3nc(Nc4ccccc4)sc3nc(=S)n2c2sc(Nc3ccccc3)nc12	> 100 µM	–	–	> 100	52.3	56.5	–	> 100	–	> 100	> 100 µM	–	> 100	> 100	–	–	–	–	–	–
O=[N+]([O-])c1cccc2nc3ccccc3c(NCCCn3ccnc3[N+](=O)[O-])c12	0.0722 µM and 0.0198 µM	–	–	–	–	–	0.0137	0.0153	0.00146	0.000256	0.00362 µM and 0.0351 µM	–	–	0.000768	–	0.0109	76.4	0.022	33.4	0.0218
COc1ccc(C2N(c3ccc(F)cc3)C(=O)N3C(c4ccc(OC)cc4)N(c4ccc(F)cc4)C(=O)N23)cc1 (stereo not given)	> 100 µM	> 100	> 100	> 100	> 100	> 100	> 100	> 100	–	> 100	–	> 100	> 100	> 100	> 100	–	–	–	–	–
CC1(C)O[C@@H]([C@H](O)CO)[C@H](O)[C@@H](C2SCCCS2)O1	> 100 µM	> 100	> 100	> 100	> 100	> 100	> 100	> 100	> 100	> 100	> 100 µM	> 100	> 100	> 100	–	–	–	–	–	–
CCN(CC)C(=O)Cc1c(C(=O)N(CC)CC)c(=O)nc2sccn12	> 100 µM	–	–	> 100	> 100	> 100	> 100	> 100	–	> 100	> 100 µM	> 100	> 100	> 100	> 100	–	–	–	–	–
Cc1ccn2c(=O)cc(CN3CCOCC3)nc2c1	> 100 µM	> 100	> 100	> 100	> 100	> 100	> 100	> 100	> 100	> 100	> 100 µM	> 100	> 100	–	> 100	–	–	–	–	–
CCOC(=O)c1c[nH]c2c(Sc3ccccc3)nccc2c1=O	> 100 µM	> 100	> 100	> 100	> 100	> 100	> 100	> 100	> 100	> 100	> 100 µM	> 100	> 100	–	> 100	–	–	–	–	–
Cc1ccc(S(=O)(=O)NC(=O)NCCc2cnc[nH]2)cc1	–	> 100	> 100	> 100	> 100	> 100	> 100	> 100	> 100	> 100	> 100 µM	> 100	> 100	> 100	–	–	–	–	–	–
CC(=O)O[C@H]1C(=O)[C@@]2(C)[C@H]([C@H](OC(=O)c3cccc([N+](=O)[O-])c3)[C@]3(O)C[C@H](OC(=O)[C@H](O)[C@@H](NC(=O)c4ccccc4)c4ccccc4)C(C)=C1C3(C)C)[C@]1(OC(C)=O)CO[C@@H]1C[C@@H]2O	> 25 µM	> 25	16.4	> 25	> 25	> 25	> 25	> 25	> 17.1	8.52	> 25 µM	> 25	> 25	–	–	–	–	–	–	–
CC(O)(Cc1ccccc1C#N)Cc1ccccc1C#N	> 100 µM	> 100	> 100	> 100	> 100	> 100	> 100	> 100	> 100	> 100	> 100 µM	> 100	> 100	> 100	–	–	–	–	–	–
COc1ccc(N=Nc2c(C)c(C#N)c(=S)n(C3OC(CO)C(O)C(O)C3O)c2-c2ccccc2)cc1 (stereo not given)	> 100 µM	> 100	81.6	–	–	> 100	> 100	> 100	84.7	76.8	–	89.7	> 100	65.9	> 100	–	–	–	–	–
N#Cc1nc(CCN2C(=O)c3ccccc3C2=O)oc1N	> 100 µM	> 100	> 100	> 100	–	> 100	> 100	> 100	> 100	> 100	> 100 µM	> 100	> 100	> 100	> 100	–	–	–	–	–
S=c1[nH]nc(CNc2ccc(-c3n[nH]c(=S)n3-c3ccc(Cl)cc3)cc2)n1-c1ccc(Cl)cc1	82.8 µM	71.1	46.4	> 100	59.1	> 100	> 100	> 100	> 100	68.1	> 100 µM	57.7	> 100	> 100	–	–	–	–	–	–
O=c1[nH]c2ccccc2c(=O)n1/N=C/c1ccc(O)cc1	> 100 µM	> 100	> 100	> 100	90.4	> 100	> 100	> 100	> 100	> 100	> 100 µM	> 100	> 100	–	> 100	–	–	–	–	–

Source: PubChem BioAssay (NCI)
